As usually defined, the GI50 is the concentration at which growth is held to half of that of the control.

The text below walks through data of ChEMBL document CHEMBL1201862, “PubChem BioAssay data set” (2004).

The structures appear in SMILES notation.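 How tested: cells in 96-well plates exposed to compound for 48 hours at five concentrations. At the GI50, growth is halved.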 Activity calls are given as the source filed them. No stated cut-off is given here; in the data, active = GI50 up to about 1.1 µM and inactive = higher.

Some test systems named below: 786-0; A549; K562; MCF7; MDA-MB-231; MDA-N; Malme-3M; NCI-H522; OVCAR-3; OVCAR-4; RPMI-8226; RXF 393; SF-539; SNB-19; SNB-75; TK-10; HCC 2998; SK-MEL-2; T47D; SK-OV-3.
Holding throughout (assay): DTP human tumour cell line panel, 48 h

As for `COc1ccc(-c2cc(O)c3nc4ccccc4n3c2)cc1`, the GI50 with 786-0, in the experiment with A549, in the experiment with K562, in the experiment on MCF7, with MDA-MB-231 and in the experiment on MDA-N was > 100 µM (inactive) throughout. Moreover, the GI50 with Malme-3M, with NCI-H522, in the experiment on OVCAR-3, in the experiment with OVCAR-4, in the experiment with RPMI-8226 and with RXF 393 was > 100 µM (inactive) each time. The GI50 with SF-539, in the experiment on SNB-19, in the experiment with SNB-75 and in the experiment with TK-10 was > 100 µM (inactive) in each case.
Take `O=C1c2ccccc2-c2cc3ccccc3c(=O)n21`: the GI50 with 786-0 is 68.5 µM (inactive); with A549, > 100 µM (inactive); in the experiment with HCC 2998, > 100 µM (inactive); with K562, > 100 µM (inactive); in the experiment with MCF7, 29 µM (inactive); in the experiment on MDA-N, > 100 µM (inactive). In addition, the GI50 is 15.5 µM (inactive) in the experiment on NCI-H522; > 100 µM (inactive) with OVCAR-3; 71.1 µM (inactive) in the experiment with RPMI-8226; > 100 µM (inactive) with SF-539; > 100 µM (inactive) in the experiment with SK-MEL-2; > 100 µM (inactive) in the experiment with SNB-19. Further, the GI50 in the experiment on SNB-75, with T47D and in the experiment with TK-10 was > 100 µM (inactive) throughout.
For `O=C1/C(=C/c2ccccc2)CCc2ccccc21`, the GI50 is 17.5 µM (inactive) in the experiment on 786-0; 22.7 µM (inactive) in the experiment on A549; 16.3 µM (inactive) in the experiment with HCC 2998; 6.97 µM (inactive) with K562; 5.15 µM (inactive) with MCF7; 26.2 µM (inactive) with MDA-MB-231. Also, the GI50 in the experiment with MDA-N was 16.2 µM (inactive); with Malme-3M, 16.6 µM (inactive); in the experiment with OVCAR-3 it was 16.6 µM (inactive); in the experiment with OVCAR-4, 14.8 µM (inactive); in the experiment with RPMI-8226 it was 3.11 µM (inactive); in the experiment on RXF 393, 15.2 µM (inactive). Further, the GI50 in the experiment with SF-539 is 16 µM (inactive); in the experiment with SK-OV-3, 25.6 µM (inactive); with SNB-19, 10.4 µM (inactive); with SNB-75, 17.3 µM (inactive); in the experiment on TK-10, 15.2 µM (inactive).
Consider `Cc1cc2ccccc2n2c1nc1ccc(O)cc12`, for which the GI50 with 786-0, in the experiment with A549, in the experiment with HCC 2998, in the experiment with K562, in the experiment on MCF7 and in the experiment on MDA-MB-231 was > 10 µM (inactive) each time. For the same compound, the GI50 with Malme-3M is > 10 µM (inactive); with NCI-H522, 9.04 µM (inactive); in the experiment on OVCAR-3 it was > 10 µM (inactive); in the experiment with OVCAR-4 it was > 10 µM (inactive); in the experiment with RPMI-8226, > 10 µM (inactive); in the experiment on RXF 393, > 10 µM (inactive). The GI50 with SF-539 was > 10 µM (inactive); in the experiment with SK-MEL-2, > 10 µM (inactive); in the experiment on SK-OV-3, > 10 µM (inactive); in the experiment on SNB-19, > 10 µM (inactive); in the experiment on SNB-75, 5 µM (inactive); in the experiment with T47D, > 10 µM (inactive). Besides, the GI50 in the experiment with TK-10 was > 10 µM (inactive).
In the case of `CC12CCC(/C(=N/c3cc(C(F)(F)F)cc(C(F)(F)F)c3)C1=O)C2(C)C` (centres undefined), the GI50 in the experiment on 786-0 is 35.5 µM (inactive); with A549, 31.9 µM (inactive); in the experiment with HCC 2998 it was 26.3 µM (inactive); in the experiment with K562 it was 29.6 µM (inactive); in the experiment on MCF7, 28.4 µM (inactive); in the experiment on MDA-MB-231 it was 36.9 µM (inactive). Besides, the GI50 in the experiment on Malme-3M was 33.4 µM (inactive); in the experiment with OVCAR-3, 33.7 µM (inactive); with OVCAR-4, 44 µM (inactive); in the experiment on RPMI-8226, 17.8 µM (inactive); in the experiment on RXF 393 it was 12.3 µM (inactive); in the experiment on SF-539 it was 22.9 µM (inactive). In addition, the GI50 with SK-MEL-2 was 18.8 µM (inactive); in the experiment with SK-OV-3, > 100 µM (inactive); in the experiment with SNB-19, 49.4 µM (inactive); with T47D it was 19.8 µM (inactive); in the experiment with TK-10 it was 37.2 µM (inactive).
As to `ClCc1nc2ccccc2[nH]1`, the GI50 is > 100 µM (inactive) in the experiment on 786-0; > 100 µM (inactive) in the experiment with A549; > 100 µM (inactive) in the experiment with HCC 2998; > 100 µM (inactive) with K562; 99.1 µM (inactive) in the experiment on MCF7; > 100 µM (inactive) with MDA-MB-231. For the same compound, the GI50 in the experiment with Malme-3M was 34.5 µM (inactive); in the experiment on NCI-H522, > 100 µM (inactive); in the experiment with OVCAR-3, > 100 µM (inactive); with OVCAR-4, > 100 µM (inactive); with RPMI-8226 it was > 100 µM (inactive); in the experiment on RXF 393 it was > 100 µM (inactive). The GI50 is > 100 µM (inactive) in the experiment on SF-539; > 100 µM (inactive) in the experiment on SK-MEL-2; > 100 µM (inactive) in the experiment on SNB-19; 66.8 µM (inactive) in the experiment with SNB-75; > 100 µM (inactive) in the experiment with T47D; > 100 µM (inactive) with TK-10.
Consider `Nc1ncc2c(n1)-c1ccccc1OC2N1CCOCC1` (centres undefined), for which the GI50 in the experiment on 786-0, in the experiment with A549, in the experiment with K562, with MCF7, in the experiment on MDA-MB-231 and in the experiment with MDA-N was > 100 µM (inactive) in each case. Further, the GI50 with Malme-3M was > 100 µM (inactive); in the experiment with NCI-H522, 45.2 µM (inactive); with OVCAR-3, > 100 µM (inactive); in the experiment on OVCAR-4 it was > 100 µM (inactive); with RPMI-8226 it was > 100 µM (inactive); in the experiment on RXF 393, > 100 µM (inactive). Also, the GI50 in the experiment on SF-539 was > 100 µM (inactive); in the experiment on SK-MEL-2, > 100 µM (inactive); in the experiment on SK-OV-3, > 100 µM (inactive); in the experiment with SNB-19, > 100 µM (inactive); in the experiment with SNB-75, 59.7 µM (inactive); in the experiment with TK-10 it was > 100 µM (inactive).
For `c1ccc2cc3c(NC4=NCCO4)cccc3cc2c1`, the GI50 in the experiment on 786-0 is 57 µM (inactive); in the experiment on A549, > 100 µM (inactive); with K562, 37.2 µM (inactive); in the experiment on MCF7 it was 68.7 µM (inactive); in the experiment on MDA-MB-231, 25.2 µM (inactive); with MDA-N, 1.79 µM (inactive). Besides, the GI50 in the experiment on Malme-3M was 36.1 µM (inactive); with NCI-H522 it was > 100 µM (inactive); in the experiment on OVCAR-3 it was 32.2 µM (inactive); with OVCAR-4, 35.6 µM (inactive); in the experiment on RPMI-8226, 39 µM (inactive); in the experiment with RXF 393 it was > 100 µM (inactive). Further, the GI50 in the experiment on SF-539 is 97.5 µM (inactive); in the experiment on SK-MEL-2, 46.1 µM (inactive); in the experiment with SK-OV-3, > 100 µM (inactive); in the experiment on SNB-19, 78.7 µM (inactive); with SNB-75, 24.8 µM (inactive); in the experiment on TK-10, 86.9 µM (inactive).
On to `CC(C)C1=C(Cc2ccccc2)C(=O)O/C1=C\c1ccc(O)c(Cl)c1`, for which the GI50 is 16.5 µM (inactive) in the experiment on 786-0; 15.1 µM (inactive) with A549; 14.6 µM (inactive) with HCC 2998; 16 µM (inactive) in the experiment on K562; 15.7 µM (inactive) in the experiment on MCF7; 16.2 µM (inactive) with MDA-MB-231. For the same compound, the GI50 is 16.5 µM (inactive) in the experiment with MDA-N; 15.8 µM (inactive) in the experiment with Malme-3M; 14.8 µM (inactive) in the experiment on OVCAR-3; 14.7 µM (inactive) in the experiment on OVCAR-4; 12.4 µM (inactive) in the experiment on RPMI-8226; 17.5 µM (inactive) in the experiment on RXF 393. The GI50 with SF-539 is 18.6 µM (inactive); with SK-OV-3 it was 19.5 µM (inactive); in the experiment on SNB-19 it was 11.5 µM (inactive); with SNB-75, 16.9 µM (inactive); in the experiment on TK-10 it was 17.7 µM (inactive).
`CCN(CC)CCNc1n[n+]([O-])c2ccccc2[n+]1[O-]`: the GI50 in the experiment on 786-0 is 7.85 µM (inactive); in the experiment with HCC 2998, 2.07 µM (inactive); in the experiment on K562, 1.72 µM (inactive); with MDA-N it was 9.73 µM (inactive); in the experiment with Malme-3M it was 6.76 µM (inactive); with OVCAR-3, 7.21 µM (inactive). The GI50 in the experiment on RPMI-8226 is 4.48 µM (inactive); with RXF 393, 4.65 µM (inactive); with SF-539, 9.27 µM (inactive); in the experiment with SK-OV-3 it was 4 µM (inactive); in the experiment on SNB-19, 13.5 µM (inactive); in the experiment with T47D it was 5.18 µM (inactive). In addition, the GI50 in the experiment on TK-10 is 11.3 µM (inactive).
As for `O=C(OCC1OC(c2nn[nH]n2)C(OC(=O)c2ccccc2)C1OC(=O)c1ccccc1)c1ccccc1` (centres undefined), the GI50 with 786-0 is > 100 µM (inactive); with A549, > 100 µM (inactive); in the experiment with HCC 2998, > 100 µM (inactive); in the experiment with K562 it was 46.2 µM (inactive); in the experiment on MCF7, 41.2 µM (inactive); with MDA-N, > 100 µM (inactive). Further, the GI50 with Malme-3M was > 100 µM (inactive); in the experiment with OVCAR-3, > 100 µM (inactive); with OVCAR-4 it was > 100 µM (inactive); in the experiment with RPMI-8226, 18.6 µM (inactive); in the experiment on RXF 393, 41.9 µM (inactive); in the experiment with SF-539, > 100 µM (inactive). Besides, the GI50 in the experiment on SK-MEL-2 was > 100 µM (inactive); in the experiment on SK-OV-3, > 100 µM (inactive); in the experiment on SNB-19 it was 32.7 µM (inactive); in the experiment on SNB-75, 57 µM (inactive); in the experiment with TK-10, > 100 µM (inactive).
In the case of `CN(C)c1ccc(/C=c2\c3ccccc3n3c2cc(-c2ccccc2)[n+]3C)cc1`, the GI50 with 786-0 was 0.142 µM (active); in the experiment with A549, 0.201 µM (active); in the experiment with HCC 2998, 1.35 µM (inactive); in the experiment with K562, 0.07 µM (active); with MCF7, 0.124 µM (active); in the experiment on MDA-MB-231, 0.222 µM (active). Also, the 50% growth inhibitory concentration (GI50) in the experiment on MDA-N was 0.144 µM (active); in the experiment with Malme-3M, 0.153 µM (active); in the experiment with NCI-H522, 0.0193 µM (active); with OVCAR-3, 0.0752 µM (active); in the experiment on OVCAR-4, 0.809 µM (active); in the experiment on RPMI-8226, 0.0172 µM (active). For the same compound, the concentration for 50% growth inhibition (GI50) in the experiment with RXF 393 is 0.547 µM (active); in the experiment with SF-539, 0.0406 µM (active); in the experiment with SK-MEL-2, 0.175 µM (active); in the experiment with SK-OV-3, 0.303 µM (active); with SNB-19 it was 0.0771 µM (active); in the experiment on SNB-75 it was 0.061 µM (active). In the experiment with TK-10, the GI50 was 0.624 µM (active).
